Legend:
Settings in all cases: treatment time: 5 days
SW1573 = tested on: SW1573
Description: (§1)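 CCK-8 viability of KRAS G12C-mutant cancer cell lines transfected with control, YAP/TAZ or TEAD1-4 siRNAs and treated with KRAS G12C inhibitors for 5 days; IC50 fitted in Prism after normalising absorbance at 450 nm to vehicle control.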

H1373 = tested on: H1373
Description: as §1

KYSE410 [1] = tested on: KYSE410
Description: as §1

H2030 = tested on: H2030
Description: as §1

H358 = tested on: H358
Description: as §1

H1792 = tested on: H1792
Description: as §1

MIAPACA2 [2] = tested on: MIAPACA2
Description: as §1

KYSE410 [3] = assay: relative viability (fraction of vehicle control); higher = more viable / less inhibited
Description: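 CCK-8 viability of KYSE410 cells transfected with control, YAP/TAZ or TEAD1-4 siRNAs and treated with KRAS G12C inhibitors for 5 days. Values are normalised to vehicle control.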

MIAPACA2 [4] = assay: as above
Description: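 CCK-8 viability of MIAPACA2 cells with empty vector or constitutively active YAP S127A, treated with KRAS G12C inhibitors for 5 days, normalised to vehicle control.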

C=CC(=O)N1CCN(c2ncnc3c(F)c(-c4c(O)cccc4F)c(Cl)cc23)CC1 [ARS1620]
Settings	IC50 (cell viability, 5 days) [nM]	relative viability
H358, siRNA knockdown (Con = control): Con	400	–
H358, siRNA knockdown (Con = control): TEAD1234_si1	366	–
H358, siRNA knockdown (Con = control): TEAD1234_si2	228	–
H358, siRNA knockdown (Con = control): YAP_WWTR1_si1	183	–
H358, siRNA knockdown (Con = control): YAP_WWTR1_si2	135	–
H1373, siRNA knockdown (Con = control): Con	1950	–
H1373, siRNA knockdown (Con = control): YAP_WWTR1_si1	580	–
H1373, siRNA knockdown (Con = control): YAP_WWTR1_si2	305	–
H1792, siRNA knockdown (Con = control): Con	1960	–
H1792, siRNA knockdown (Con = control): YAP_WWTR1_si1	590	–
H1792, siRNA knockdown (Con = control): YAP_WWTR1_si2	472	–
H2030, siRNA knockdown (Con = control): Con	9870	–
H2030, siRNA knockdown (Con = control): TEAD1234_si1	1050	–
H2030, siRNA knockdown (Con = control): TEAD1234_si2	237	–
KYSE410 [1], siRNA knockdown (Con = control): Con	4240	–
KYSE410 [1], siRNA knockdown (Con = control): TEAD1234_si1	1050	–
KYSE410 [1], siRNA knockdown (Con = control): TEAD1234_si2	1070	–
KYSE410 [1], siRNA knockdown (Con = control): YAP_WWTR1_si1	1680	–
KYSE410 [1], siRNA knockdown (Con = control): YAP_WWTR1_si2	1190	–
KYSE410 [3], log10 concentration (uM): 0, siRNA knockdown: TEAD1-4 siRNA 1	–	0.606
KYSE410 [3], log10 concentration (uM): 0, siRNA knockdown: TEAD1-4 siRNA 2	–	0.433
KYSE410 [3], log10 concentration (uM): 0, siRNA knockdown: YAP/TAZ siRNA 1	–	0.792
KYSE410 [3], log10 concentration (uM): 0, siRNA knockdown: YAP/TAZ siRNA 2	–	0.59
KYSE410 [3], log10 concentration (uM): 0, siRNA knockdown: negative control siRNA	–	0.869
KYSE410 [3], log10 concentration (uM): 0.39794, siRNA knockdown: TEAD1-4 siRNA 1	–	0.338
KYSE410 [3], log10 concentration (uM): 0.39794, siRNA knockdown: TEAD1-4 siRNA 2	–	0.315
KYSE410 [3], log10 concentration (uM): 0.39794, siRNA knockdown: YAP/TAZ siRNA 1	–	0.438
KYSE410 [3], log10 concentration (uM): 0.39794, siRNA knockdown: YAP/TAZ siRNA 2	–	0.428
KYSE410 [3], log10 concentration (uM): 0.39794, siRNA knockdown: negative control siRNA	–	0.754
KYSE410 [3], log10 concentration (uM): 0.69897, siRNA knockdown: TEAD1-4 siRNA 1	–	0.25
KYSE410 [3], log10 concentration (uM): 0.69897, siRNA knockdown: TEAD1-4 siRNA 2	–	0.194
KYSE410 [3], log10 concentration (uM): 0.69897, siRNA knockdown: YAP/TAZ siRNA 1	–	0.3
KYSE410 [3], log10 concentration (uM): 0.69897, siRNA knockdown: YAP/TAZ siRNA 2	–	0.288
KYSE410 [3], log10 concentration (uM): 0.69897, siRNA knockdown: negative control siRNA	–	0.556
KYSE410 [3], log10 concentration (uM): 1, siRNA knockdown: TEAD1-4 siRNA 1	–	0.106
KYSE410 [3], log10 concentration (uM): 1, siRNA knockdown: TEAD1-4 siRNA 2	–	0.0618
KYSE410 [3], log10 concentration (uM): 1, siRNA knockdown: YAP/TAZ siRNA 1	–	0.123
KYSE410 [3], log10 concentration (uM): 1, siRNA knockdown: YAP/TAZ siRNA 2	–	0.104
KYSE410 [3], log10 concentration (uM): 1, siRNA knockdown: negative control siRNA	–	0.198
KYSE410 [3], log10 concentration (uM): 1.301029996, siRNA knockdown: TEAD1-4 siRNA 1	–	0.0328
KYSE410 [3], log10 concentration (uM): 1.301029996, siRNA knockdown: TEAD1-4 siRNA 2	–	0.0272
KYSE410 [3], log10 concentration (uM): 1.301029996, siRNA knockdown: YAP/TAZ siRNA 1	–	0.0271
KYSE410 [3], log10 concentration (uM): 1.301029996, siRNA knockdown: YAP/TAZ siRNA 2	–	0.0298
KYSE410 [3], log10 concentration (uM): 1.301029996, siRNA knockdown: negative control siRNA	–	0.0407
KYSE410 [3], log10 concentration (uM): -0.30103, siRNA knockdown: TEAD1-4 siRNA 1	–	0.826
KYSE410 [3], log10 concentration (uM): -0.30103, siRNA knockdown: TEAD1-4 siRNA 2	–	0.769
KYSE410 [3], log10 concentration (uM): -0.30103, siRNA knockdown: YAP/TAZ siRNA 1	–	0.897
KYSE410 [3], log10 concentration (uM): -0.30103, siRNA knockdown: YAP/TAZ siRNA 2	–	0.7891
KYSE410 [3], log10 concentration (uM): -0.30103, siRNA knockdown: negative control siRNA	–	0.938
KYSE410 [3], log10 concentration (uM): -0.60206, siRNA knockdown: TEAD1-4 siRNA 1	–	0.943
KYSE410 [3], log10 concentration (uM): -0.60206, siRNA knockdown: TEAD1-4 siRNA 2	–	0.725
KYSE410 [3], log10 concentration (uM): -0.60206, siRNA knockdown: YAP/TAZ siRNA 1	–	0.964
KYSE410 [3], log10 concentration (uM): -0.60206, siRNA knockdown: YAP/TAZ siRNA 2	–	0.86
KYSE410 [3], log10 concentration (uM): -0.60206, siRNA knockdown: negative control siRNA	–	0.916
KYSE410 [3], log10 concentration (uM): -1, siRNA knockdown: TEAD1-4 siRNA 1	–	0.909
KYSE410 [3], log10 concentration (uM): -1, siRNA knockdown: TEAD1-4 siRNA 2	–	0.779
KYSE410 [3], log10 concentration (uM): -1, siRNA knockdown: YAP/TAZ siRNA 1	–	0.959
KYSE410 [3], log10 concentration (uM): -1, siRNA knockdown: YAP/TAZ siRNA 2	–	0.883
KYSE410 [3], log10 concentration (uM): -1, siRNA knockdown: negative control siRNA	–	0.976
KYSE410 [3], log10 concentration (uM): -2, siRNA knockdown: TEAD1-4 siRNA 1	–	0.981
KYSE410 [3], log10 concentration (uM): -2, siRNA knockdown: TEAD1-4 siRNA 2	–	0.876
KYSE410 [3], log10 concentration (uM): -2, siRNA knockdown: YAP/TAZ siRNA 1	–	0.988
KYSE410 [3], log10 concentration (uM): -2, siRNA knockdown: YAP/TAZ siRNA 2	–	0.996
KYSE410 [3], log10 concentration (uM): -2, siRNA knockdown: negative control siRNA	–	0.9803
MIAPACA2 [2], siRNA knockdown (Con = control): Con	10400	–
MIAPACA2 [2], siRNA knockdown (Con = control): TEAD1234_si1	5670	–
MIAPACA2 [2], siRNA knockdown (Con = control): TEAD1234_si2	5420	–
MIAPACA2 [2], siRNA knockdown (Con = control): YAP_WWTR1_si1	4420	–
MIAPACA2 [2], siRNA knockdown (Con = control): YAP_WWTR1_si2	6970	–
MIAPACA2 [4], log10 concentration (uM): 0, ectopic expression: YAP S127A	–	1.05
MIAPACA2 [4], log10 concentration (uM): 0, ectopic expression: empty vector (YAP experiment)	–	1.01
MIAPACA2 [4], log10 concentration (uM): 0.39794, ectopic expression: YAP S127A	–	0.984
MIAPACA2 [4], log10 concentration (uM): 0.39794, ectopic expression: empty vector (YAP experiment)	–	0.743
MIAPACA2 [4], log10 concentration (uM): 0.69897, ectopic expression: YAP S127A	–	0.977
MIAPACA2 [4], log10 concentration (uM): 0.69897, ectopic expression: empty vector (YAP experiment)	–	0.542
MIAPACA2 [4], log10 concentration (uM): 1, ectopic expression: YAP S127A	–	0.913
MIAPACA2 [4], log10 concentration (uM): 1, ectopic expression: empty vector (YAP experiment)	–	0.25
MIAPACA2 [4], log10 concentration (uM): 1.301029996, ectopic expression: YAP S127A	–	0.315
MIAPACA2 [4], log10 concentration (uM): 1.301029996, ectopic expression: empty vector (YAP experiment)	–	0.0583
MIAPACA2 [4], log10 concentration (uM): -0.30103, ectopic expression: YAP S127A	–	0.946
MIAPACA2 [4], log10 concentration (uM): -0.30103, ectopic expression: empty vector (YAP experiment)	–	0.996
MIAPACA2 [4], log10 concentration (uM): -0.60206, ectopic expression: YAP S127A	–	0.915
MIAPACA2 [4], log10 concentration (uM): -0.60206, ectopic expression: empty vector (YAP experiment)	–	0.98
MIAPACA2 [4], log10 concentration (uM): -1, ectopic expression: YAP S127A	–	0.969
MIAPACA2 [4], log10 concentration (uM): -1, ectopic expression: empty vector (YAP experiment)	–	1.05
MIAPACA2 [4], log10 concentration (uM): -2, ectopic expression: YAP S127A	–	0.992
MIAPACA2 [4], log10 concentration (uM): -2, ectopic expression: empty vector (YAP experiment)	–	0.994
SW1573, siRNA knockdown (Con = control): Con	13200	–
SW1573, siRNA knockdown (Con = control): TEAD1234_si1	342	–
SW1573, siRNA knockdown (Con = control): TEAD1234_si2	164	–
SW1573, siRNA knockdown (Con = control): YAP_WWTR1_si1	100	–
SW1573, siRNA knockdown (Con = control): YAP_WWTR1_si2	132	–
